Data on 1 sequence can be found in publication PMC12998938, “Neutrophil store-operated Ca^2+ entry: A correctable biomarker of cystic fibrosis lung disease progression” (Journal of cystic fibrosis : official journal of the …, 2025).

The test system of test [1] is HEK293T Orai1, Orai2 and Orai3 triple knockout cells. Nature of the test: SOCE in Orai1/2/3 triple knockout HEK293T cells. Format: cell-based. As to conditions: thapsigargin, 7-9 replicates, 3 experiments. The text has this:
(§1) We hypothesized that inhibiting SOCE in CF neutrophils may reduce the secretion of neutrophil elastase and other proteins associated with CF lung disease. To validate ELD607’s specificity for Orai1 over Orai2 and Orai3, we first evaluated ELD607 function in HEK293T cells that had Orai1, Orai2 and Orai3 stably knocked out. […] Next we evaluated ELD607’s ability to inhibit SOCE in non-CF and CF neutrophils.
(§2) Supplemental figure 3. […] Dose responses of thapsigargin-induced changes in cytoplasmic Ca^2+ concentrations. These studies were performed in HEK293T where Orai1, Orai2 and Orai3 had been stably knocked down (triple knockout cells, TKO) or in TKO cells that were transiently transfected with Orai1, Orai2 or Orai3 as indicated. All data are from 7-9 replicates per data point from 3 separate experiments.

The test system of test [2] is CF neutrophils. In words: Neutrophil degranulation multiplex assay, CF neutrophils. As to conditions: 3 h, 1 μM thapsigargin 30 min, vs vehicle, paired t-test. The class given is cell-based, human. The protocol: (§3) Neutrophils were immediately isolated by negative selection from deidentified blood samples using an EasySep human neutrophil isolation kit (Stem Cell Technologies) as described. Cytosolic Ca^2+ was measured using Fluo-4 as described. Protein lysate from isolated blood neutrophils was characterized by liquid chromatography with tandem mass spectrometry (LC-MS/MS) as described. Degranulation products in media were quantified by Luminex assay using a custom Bio-Plex human kit (BioRad) per the manufacturer’s protocol […]. Detailed methods for all experiments and measurements are provided in an online data supplement.
Multiple neutrophil functions, including neutrophil degranulation, are Ca^2+ dependent. Neutrophil degranulation results in an increase in several proteases in the lung, including neutrophil elastase, a key driver of CF lung damage. Accordingly, we investigated the impact of ELD607 on neutrophil degranulation as a marker of Ca^2+-dependent neutrophilic function. We used a multiplex assay to quantify key granule proteins released into media after a 3 h pretreatment with 10 μM ELD607 or vehicle control followed by a 30 min stimulation with 1 μM thapsigargin. Levels of myeloperoxidase (MPO; primary granules), lactoferrin (specific granules) and matrix metalloproteinase-9 (MMP9; tertiary granules) release were similar between non-CF and CF neutrophils (Fig. 4A–C).
Fig. 4. ELD607 inhibits degranulation in non-CF and CF neutrophils. Neutrophil degranulation (A-C) was assayed by measuring the concentration of representative constituents of (A) primary granules, MPO (non-CF, n = 9; CF, n = 13); (B) secondary granules, lactoferrin (non-CF, n = 12; CF, n = 17) and (C) tertiary granules, MMP-9 (non-CF, n = 9; CF, n = 12). […]
Multiplex assay. […] Supernatant was collected and analyzed for a panel of neutrophil granule proteins (MPO, lactoferrin, MMP9) using a Bio-Plex human kit (BioRad) per the manufacturer’s protocol. Plates were then analyzed using a Bio-Plex MAGPIX System (BioRad).

Test [3] relates to Orai1. Nature of the test: SOCE in triple knockout HEK293T cells transfected with Orai1. The class given is cell-based. As to conditions: TKO + Orai1, vs wild-type HEK293T; thapsigargin; dose response; 7-9 replicates; Orai1, 2, 3 plots differ p<0.001.
Excerpt: as §1, §2

In test [4] the test system is SOCE/Orai1 in CF peripheral blood neutrophils. Nature of the test: Fluo-4 Ca2+ assay, global thapsigargin-stimulated Ca2+ response (SOCE), CF neutrophils. The class given is cell-based, human. The procedure: as §3
Isolated neutrophils were incubated with peptide or vehicle control for 3 h. For the final hour of treatment, cells were loaded with Fluo-4 direct (Thermofisher) for 45 min at 37°C and 15 min at room temperature as described.
Fluo-4 Ca^2+ assays. Isolated neutrophils were incubated with peptide or vehicle control for 3 h. For the final hour of treatment, cells were loaded with Fluo-4 direct (Thermofisher) for 45 min at 37°C and 15 min at room temperature. For global Ca^2+ measurements, baseline fluorescent readings were made for 2 min (1 read every 30 s) using a Tecan Infinite M1000 plate reader (ex 494 em 516 nm, bandwidth 5 nm) before thapsigargin (Sigma-Aldrich) was added and the change in emission was recorded for 10 min (1 read every 30 s). To isolate phases of store operated Ca^2+ entry, cells underwent 3 rounds of centrifugation and resuspension in Ca^2+-free Ringer’s solution to remove extracellular Ca^2+. Baseline fluo-4 fluorescence was read for 2 min before cell were stimulated with thapsigargin (Tocris). Reads continued for ~5 min before 1.2 mM Ca^2+ was added to the extracellular solution and SOCE was measured for ~10 mins. For analysis, all fluo-4 fluorescence reads are normalized to baseline.

The test system of test [5] is Orai1. As to conditions: cartoon legend; reference not given; cited from earlier work. The text has this:
Fig. 6. Cartoon of SOCE in neutrophils in the absence (left) and presence (right) of ELD607. Left, activation of Gq-linked GPCRs by appropriate agonists (e.g. ATP) leads to formation of inositol triphosphate (IP3) and ER store Ca^2+ depletion. This in turn causes STIM1 to rapidly aggregate at ER-plasma membrane junctions where it causes Orai1 to activate and aggregate to provide a second, amplifying wave of Ca^2+ which triggers neutrophil degranulation, as well as activating other Ca^2+-dependent processes (not shown). Right, ELD607 binds to Orai1, causing it to be ubiquitinated, internalized ...

Test [6] has as its system Orai3. Nature of the test: SOCE in triple knockout HEK293T cells transfected with Orai3. The class given is cell-based.
Excerpt: as §1, §2

Test [7] has as its system Orai2. Nature of the test: SOCE in triple knockout HEK293T cells transfected with Orai2. The class given is cell-based.
Excerpt: as §1, §2

The mark [8] stands for this setting: discussion summary of supplemental figure 3.

Consider “VHDIVNMLIRG [ELD607, size-optimized SPLUNC1/α6 peptidomimetic]”, for which the “effect on SOCE” value in test [1] was “no effect on SOCE”. The “MMP9 release (tertiary granules)” value in test [2] (n = 12, 10 μM) is “significantly reduced”. Besides, the “MPO release (primary granules)” value in test [2] (n = 13, 10 μM) is “significantly reduced”. Moreover, the “lactoferrin release (specific/secondary granules)” value in test [2] (n = 17, 10 μM) is listed as “significantly reduced”. The “sensitivity of SOCE to ELD607” value in test [3] is reported as “restored the sensitivity to ELD607 seen in wild-type HEK293T cells”; in test [6] (TKO + Orai3, thapsigargin, dose response, 7-9 replicates) it was “relatively insensitive”; in test [7] (TKO + Orai2, thapsigargin, dose response, 7-9 replicates), “relatively insensitive”. For the same sequence, the “inhibition of SOCE (global Ca2+ response)” value in test [4] (CF, 10 μM peptide, 3 h pre-treatment, 1 μM thapsigargin, Fluo-4, N = 21 donors) is reported as “significantly inhibited SOCE regardless of genotype”. Moreover, the “completeness of inhibition of Ca2+ signaling” value in test [4] (neutrophils (discussion of Fig. 3)) is on record as “not 100% inhibited”. Also, the “effect on Orai1” value in test [5] is “binds to Orai1, causing it to be ubiquitinated, internalized and degraded”. Also, the “specificity for Orai1: effect on Orai3” value in test [6] (setting [8]) was “little effect on Orai2 and Orai3”. Further, the “specificity for Orai1: effect on Orai2” value in test [7] (setting [8]) is “little effect on Orai2 and Orai3”.
